From US9046527B2, “Mutated SUMO isoforms and uses thereof” (Université De Montréal, priority 2009, dated 2015)

Experiments:
protein SUMOylation = test: NTA purification of His6-SUMO1 mutant proteins, silver-stained SDS-PAGE and immunoblot anti-His; format: cell-based, human; details: cells stably expressing His6-SUMO1 mutant, stimulation with As2O3
Protocol: FIG. 20 illustrates gel electrophoresis separation of His6-SUMO1 mutant proteins following NTA purification. Silver-stained SDS-PAGE and immunoblot anti-His show an enrichment of His6-SUMO1 proteins as indicated from the trail of protein bands at the top of the gel.
(§1) SUMOylated proteins were purified from 10^9 cells of stably expressing His6-SUMO1 mutant; half of cell culture was treated with 1 μM As2O3 during 4 hours. Cells were harvested, washed with PBS and lysed with 15 mL of Buffer A (6 M guanidinium-HCl, 0.1 M NaH2PO4, 0.01 M Tris-HCl, pH 8.0, 10 mM-mercaptoethanol). The lysate was sonicated, centrifuged at 16 000 g for 30 minutes and filtered on 0.45 μm and mixed with 500 μL Ni^2+-NTA agarose beads (Invitrogen) pre-washed with lysis buffer and incubated overnight at room temperature on rotating wheel. The NTA beads were successively washed with the following solutions: buffer A, buffer B (8 M Urea, 0.1 M NaH2PO4, 0.01 M Tris-HCl, pH 6.3, 10 mM-mercaptoethanol), buffer B plus 0.2% Triton X-100, twice with buffer B. His SUMO proteins were eluted from the NTA beads using 200 mM imidazole, 0.15 M Tris-HCl, pH 6.7, 5% Glycerol. An example of the enriched His6-SUMO1 mutant proteins is shown on FIG. 20 following SDS-PAGE separation and gel visualisation using silver staining and anti-His immonublot.

PML = target: T1, PML (Homo sapiens, UniProt P29590); test: LC-MS/MS of tryptic peptides from NTA-purified His-SUMO3 proteins of HEK293 cells treated or not with As2O3; format: cell-based
T1 construct: tryptic peptides from NTA-purified His-SUMO3 proteins of HEK293 cells treated or not with As2O3; endogenous in cells; host or cells: HEK293 cells expressing the His-SUMO3 mutant
T1 sequence (P29590 1-882): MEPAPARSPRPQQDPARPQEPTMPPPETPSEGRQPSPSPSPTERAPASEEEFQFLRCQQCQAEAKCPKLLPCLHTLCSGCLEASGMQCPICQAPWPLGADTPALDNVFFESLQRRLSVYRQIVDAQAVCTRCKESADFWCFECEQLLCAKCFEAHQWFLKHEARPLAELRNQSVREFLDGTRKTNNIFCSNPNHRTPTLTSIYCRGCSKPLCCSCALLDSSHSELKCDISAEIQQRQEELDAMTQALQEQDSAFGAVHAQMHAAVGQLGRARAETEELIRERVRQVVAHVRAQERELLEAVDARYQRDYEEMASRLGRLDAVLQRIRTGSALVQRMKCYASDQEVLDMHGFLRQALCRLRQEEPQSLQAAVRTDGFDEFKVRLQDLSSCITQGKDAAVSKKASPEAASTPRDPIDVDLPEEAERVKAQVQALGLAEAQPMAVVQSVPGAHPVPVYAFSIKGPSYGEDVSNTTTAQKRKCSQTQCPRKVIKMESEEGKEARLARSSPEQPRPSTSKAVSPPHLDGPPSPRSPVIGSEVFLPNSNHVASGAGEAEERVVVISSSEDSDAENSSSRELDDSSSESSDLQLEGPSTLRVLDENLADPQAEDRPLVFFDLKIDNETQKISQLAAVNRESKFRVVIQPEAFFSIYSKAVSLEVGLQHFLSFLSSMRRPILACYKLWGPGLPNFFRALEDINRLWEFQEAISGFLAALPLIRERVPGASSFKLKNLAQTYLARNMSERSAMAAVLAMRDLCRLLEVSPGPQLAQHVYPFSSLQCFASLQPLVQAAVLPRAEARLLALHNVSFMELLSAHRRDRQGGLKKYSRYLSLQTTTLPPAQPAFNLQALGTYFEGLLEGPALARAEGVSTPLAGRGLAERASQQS
Protocol: FIG. 21 is a scatter plot of tryptic peptides from NTA-purified His-SUMO3 proteins of HEK293 cells treated or not with As2O3.
as §1
This scatter plot compares the abundance of more than 4500 peptide ions, of which approximately 45 correspond to SUMOylated tryptic peptides (blue circles). […]

[1] = test system: PML-nuclear bodies in HEK293 human cells; test: Immunofluorescence microscopy: co-localization of PML-Yellow Fluorescence Protein with His6-SUMO to nuclear bodies; format: cell-based; details: HEK293, incubation with 1 μM As2O3
Source text: Immunofluorescence microscopy of HEK293 human cells showing co-localization of PML-Yellow Fluorescence Protein with His6 SUMO1 WT (top) and Q92R mutant (bottom) to nuclear bodies. […] DAPI staining (nucleus).
Immunofluorescence microscopy of HEK293 human cells showing co-localization of PML-Yellow Fluorescence Protein with His6-SUMO1 WT, His6-SUMO1 mutant, His6-SUMO2 WT, His6-SUMO2 mutant, His6-SUMO3 WT, and His6-SUMO3 mutant to nuclear bodies, DAPI staining (nucleus).
The functional activity of the wild type and SUMO mutants was also determined from immunofluorescence microscopy by monitoring the recruitment of the SUMOylated promyelocytic leukaemia (PML) substrate to nuclear bodies following treatment of HEK293 cells with As2O3 (FIG. 14). The visualization of all SUMO mutants using this immunofluorescence assay also confirmed the functional activity of all three SUMO isoforms (FIG. 15).

[2] = test system: Ubiquitin-conjugating enzyme E2; test: In vitro SUMOylation assay; format: biochemical; details: Coomassie or silver stained gel
Protocol: For in vitro SUMOylation, the reaction mixture comprised 20 μL of reaction buffer (20 mM NH4CO3 pH 9, 20 mM NaCl, 0.5 mM DTT), 1 μg recombinant and purified SUMO proteins, 0.5 μg of substrate E2-25K (Boston Biochem) or RanGAP fragment (Boston Biochem), 0.1 μg SASE1/SAE2 heterodimer (Boston Biochem), 0.5 μg conjugating enzyme hUbC9 (Boston Biochem) with or without Mg-ATP solution (Boston Biochem) at 5 mM. The reaction mixture was incubated at 37° C. for 1 hour and subsequently stopped by adding an equal volume of Laemmli Buffer. The reaction mixture was analysed separated by SDS-PAGE and visualized using Western Blotting (2 μl), coomassie staining (10 μL) or silver staining (5 μL) as shown in FIGS. 7 and 8.
Protein extracts were subjected to electrophoresis through a 4-12% NuPAGE Bis-Tris polyacrylamide gel (Invitrogen, Burlington, ON, Canada) under denaturing conditions. After electrophoresis, proteins were fixed within the polyacrylamide gel by incubating the entire gel in 5% (v/v) acetic acid in a 1:1 (v/v) water:ethanol solution. For silver staining, the gel was first sensitized for 1 minute using an aqueous solution of 0.02% sodium thiosulfate (Na2S2O3) unless otherwise indicated. Staining was performed by incubating the gel in 0.1% (v/v) silver nitrate (AgNO3) in water for 25 minutes at 4° C. Finally, the gel was developed in 3% (w/v) sodium carbonate (Na2CO3, pH: 11.4) containing 0.05% formalin (v/v) in water. The staining was then stopped with a solution of 5% (v/v) acetic acid in water. For Coomassie blue staining, proteins were fixed after gel separation and stained in a one-step procedure by incubating the entire gel in 0.1% (w/v) Coomassie Brilliant Blue R-250 in a 1:8:11 (v/v/v) acetic acid:methanol:water mixture for 1 hour at room temperature (RT). The gel was finally rinsed three times in a 1:4:5 (v/v/v) acetic acid:methanol:water solution at RT to visualize protein bands.

HA-RanGAP = test: In vivo SUMOylation assay with transfected HA-RanGAP, immunoblot anti-HA; format: cell-based, human
Protocol: FIG. 9 illustrates immunoblot of in vivo SUMOylation assay using transfected HA-RanGAP as protein substrate. Immunoblots are performed using an antibody that recognized the HA epitope. Immunoblots are presented for His6-SUMO1 (wild type, and mutant Q92R).
SUMO isoform mutants can also be co-transfected in mammalian cells with target protein substrates. For example, RanGAP1, a known SUMOylation target forms a tight complex in association with NUP358 and UBE2I/UBC9. The ubiquitin-conjugating enzyme E2 interacts with UBE2I favoring the conjugation of SUMO1 to RANGAP1, and subsequently stabilizes interactions of SUMOylated RANGAP1 with RANBP2/NUP358. The SUMO1/RANGAP1/UBC9/NUP358 complex associates with nuclear pore complexes (Joseph, J., Tan, S. H., Karpova, T. S., McNally, J. G., and Dasso, M. (2002). SUMO-1 targets RanGAP1 to kinetochores and mitotic spindles. The Journal of cell biology 156, 595-602; Swaminathan, S., Kiendl, F., Korner, R., Lupetti, R., Hengst, L., and Melchior, F. (2004). RanGAP1*SUMO1 is phosphorylated at the onset of mitosis and remains associated with RanBP2 upon NPC disassembly. The Journal of cell biology 164, 965-971). The SUMO isoform mutants are also functional and can be conjugated to RanGAP1 following transfection of these proteins in […] cells, as illustrated in FIG. 9. […]

Molecule: [AsH3] [As2O3]
- protein SUMOylation (His6-SUMO1 protein bands) (protein SUMOylation): Enhanced protein SUMOylation
- abundance of PML peptides (PML; HEK293, NTA-purified His-SUMO3 proteins, upon As2O3 treatment): significant increased in abundance
- increase in SUMOylation of K490 bearing PML peptide (PML; HEK293 His-SUMO3 mutant, As2O3 treated vs not treated): 8 fold
- formation of PML-nuclear bodies [1]: Increase formation of PML-nuclear bodies

Molecule: His6-SUMO1 E93R: recombinant His6-SUMO1 with mutation E93R
- SUMOylated E2 band on stained gel [2]: SUMOylated E2 is observed as the highest molecular weight band

Molecule: His6-SUMO1 Q92R: Substitution of Gln for Arg at position 92 in endogenous SUMO1 protein, N-terminal His6; SEQ ID NO: 4
- SUMOylated HA-RanGAP band on immunoblot (HA-RanGAP): SUMOylated HA-RanGAP is observed as the highest molecular weight band
- SUMOylated E2 band on stained gel [2]: SUMOylated E2 is observed as the highest molecular weight band

Molecule: His6-SUMO1 Q94R: recombinant His6-SUMO1 with mutation Q94R
- SUMOylated E2 band on stained gel [2]: SUMOylated E2 is observed as the highest molecular weight band

Molecule: His6-SUMO2 Q88R: Substitution of Gln for Arg at position 88 in endogenous SUMO2 protein, N-terminal His6; SEQ ID NO: 8
- SUMOylated E2 band on stained gel [2]: SUMOylated E2 is observed as the highest molecular weight band

B1: His6-SUMO3 Q92R/Q93N: Gln to Arg at position 87 and Gln to Asn at position 88 in endogenous SUMO3, N-terminal His6; SEQ ID NO: 12 (protein, listed as Homo sapiens)
chain: MAHHHHHHGGSMSEEKPKEGVKTENDHINLKVAGQDGSVVQFKIKRHTPLSKLMKAYCERQGLSMRQIRFRFDGQPINETDTPAQLEMEDEDTIDVFRNQTGG
modifications: N-terminal His6
- SUMOylated E2 band on stained gel [2]: SUMOylated E2 is observed as the highest molecular weight band
